Measurements taken from publication PMC8742467, “Therapeutical interference with the epigenetic landscape of germ cell tumors: a comparative drug study and new mechanistical insights” (Clinical Epigenetics, 2022).
Read-outs that look alike come from different tables or passages of the source.

Key:
JAR (CC) = experiment: XTT cell viability assay, JAR; assay type: cell-based; conditions: Homo sapiens, after 48 h, n = 4, read-out: EC50 colour/symbol code, CC JAR
Procedure: (§1) The […] (XTT) assays were performed as described previously. In summary, for GCT and fibroblast cell lines 5 × 10^3 cells (3 × 10^3 for UC, PCa and RCC cell lines) per 96-well were seeded and different drug concentrations (see Additional file 2: Fig. S2, Additional file 3: Fig. S3) or corresponding solvents were added to the cells the following day. For drug details see Additional file 12: Table S2 C. Each condition was analyzed in four technical replicates and EC50 values were calculated by GraphPad Prism v8.

2102EP (EC) = experiment: XTT cell viability assay, 2102EP; assay type: cell-based; conditions: Homo sapiens, read-out: EC50 colour/symbol code, EC 2102EP
Procedure: as §1

TCam-2 (SE) = experiment: XTT cell viability assay, TCam-2; assay type: cell-based; conditions: Homo sapiens, read-out: EC50 colour/symbol code, SE TCam-2
Procedure: as §1

GCT cell lines = experiment: XTT cell viability assay, GCT cell lines (pre-screen / summary); assay type: cell-based, Human; conditions: Homo sapiens, GCT; first pre-screen, XTT; read-out: EC50
Procedure: as §1

Measured: EC50

NC(=O)c1cccnc1 [Nicotinamide]
> 50 µM: JAR (CC) | 2102EP (EC); after 48 h, XTT, n = 4 | TCam-2 (SE); after 48 h, XTT, n = 4 | GCT cell lines

O=C(O)C1=CC(=C(c2ccc(O)c(C(=O)O)c2)c2ccc(O)c(C(=O)O)c2)C=CC1=O [Aurintricarboxylic Acid]
> 50 µM: JAR (CC) | 2102EP (EC); after 48 h, XTT, n = 4 | TCam-2 (SE); after 48 h, XTT, n = 4 | GCT cell lines

COc1cc(-c2cn(C)c(=O)c3cnccc23)c(OC)cc1CN(C)C [BI-9564]
> 50 µM: JAR (CC) | 2102EP (EC); after 48 h, XTT, n = 4 | TCam-2 (SE); after 48 h, XTT, n = 4 | GCT cell lines

CN(C)NC(=O)CCC(=O)O [Daminozide]
> 50 µM: JAR (CC) | 2102EP (EC); 48 h | TCam-2 (SE); 48 h

O=C(O)c1ccc(CN2CCC(CN[C@@H]3C[C@H]3c3ccccc3)CC2)cc1 [GSK2879552]
> 50 µM: JAR (CC) | 2102EP (EC); after 48 h, XTT, n = 4 | TCam-2 (SE); after 48 h, XTT, n = 4 | GCT cell lines
